# Patent publication US20250205158A1, “BIODEGRADABLE LIPIDS AND FORMULATIONS FOR DELIVERY OF MRNA” (Massachusetts Institute of Technology, priority 2023, published 2025)
# Read-outs that look alike come from different tables or passages of the source.
# How the values were obtained:
# mice [1] = type: in vivo, BALB/cJ and C57B1/6J mice; conditions: HA mRNA, dose=1 μg, day 35
# [2] = test system: Lentiviruses pseudotyped with the B.1.617.2 spike protein; type: cell-based; conditions: 293T-ACE2 cells, GFP reporter
# mice [3] = assay: hEPO mRNA LNP protein production after intravenous administration; type: in vivo
# TNS assay of LNP pKa = type: physicochemical
# Method: (§1) Structural features of AMG lipids that facilitate mRNA delivery. The factors contributing to lipid potency were evaluated. The ionization properties of AMG1541 LNPs were investigated using a previously established 6-(p-toluidino)-2-napthalenesulfonic acid (TNS) assay.^22 The pKa of AMG LNPs showing higher in vivo mRNA transfection than SM-102 ranged between pH 6.4-6.7. […] In addition to endosomal buffering, it is hypothesized that the protonated ionizable lipids within the acidic endosome bind with anionic phospholipids within the endosomal membrane, destabilizing the membrane's bilayer and promoting endosomal pore formation.^17,52 The membrane fusion properties of the ionizable lipids was evaluated via ^31P NMR. When bilayer forming DPPS vesicles were mixed with equimolar AMG lipid under acidic conditions, a bilayer to hexagonal phase transition was observed, indicating their membrane-destabilizing nature (FIG. 15D).
# [4] = test system: influenza A/Tasmania/503/2020 virus; assay: Hemagglutination inhibition (HAI) assay, neutralizing antibody titers after HA mRNA vaccination; type: in vivo, BALB/cJ mice
# Method: To test this, a dose-response vaccination experiment ranging from […] was performed in female BALB/cJ mice. Neutralizing antibody titers were evaluated using the hemagglutination inhibition (HAI) assay. HAI titers are strongly correlated with vaccine protection and the assay is an FDA approved method for testing influenza vaccine efficacy^38,39 In agreement with the binding antibody titers, higher neutralizing […] were measured across all three tested doses: SM-102 only gave detectable neutralizing immunity at a 1 μg dose, while AMG1541 gave neutralizing immunity with as little was 10 ng of mRNA (FIG. 13H). Not only was AMG1541 able to generate neutralizing immunity at a very low dose, the binding and neutralizing antibody titers were equivalent in mice vaccinated with AMG1541 at a […] as those with SM-102 at a […] (FIG. 13H).
# HAI Assay. HAI assays were performed by IBT bioservices. Viral titers were standardized by defining one HA unit as the amount of inactivated influenza A/Tasmania/503/2020 virus required to completely hemagglutinate an equal volume of 1% turkey red blood cells (TRBCs) (Lampire). Serum was heat inactivated at 56° C. then receptor destroying enzyme (RDE) (DENKA) was added to the serum and incubated at 37° C. for 20 hrs. RDE was then deactivated at 56° C. for 60 mins. Serum samples were then serially diluted in DPBS and 25 μL of diluted serum was added to a 96-well V bottom plate. Subsequently, four HA units of inactivated virus in 25 μL of DPBS were added to the diluted serum and incubated for 30 mins. at RT. 50 μL of a 1% (4×10^7 cells/mL) solution of turkey red blood cells (Lampire) was then added to the serum and virus mixture.
# [5] = 31P NMR membrane fusion study; type: physicochemical; conditions: acidic pH
# Method: as §1
# mice [6] = test system: mice
# Method: Evaluation of the LNPs via intramuscular injection. The in vivo potency of the ionizable lipids was screened through intramuscular injection of LNPs loaded with mRNA encoding firefly luciferase protein. These LNPs were formulated with a molar composition of (35:16:46.5:2.5) using one of the synthesized ionizable lipids, DOPE as a helper lipid, cholesterol, and DMPE-PEG respectively. mRNA-loaded LNPs were intramuscularly administered in mice at a dose of 1 μg, and expression of luciferase protein was monitored at 6 hours via IVIS bioluminescent imaging (FIG. 3). […] Without wishing to be bound by theory, increased levels of protein expression may enhance the response to vaccination.
# In Vitro and In Vivo Screening of AMG Lipid Library. Following synthesis, the mRNA delivery efficacy of the AMG lipids was evaluated through both in vitro and in vivo screens. To screen the first generation of AMG lipids (FIGS. 11B and 11C), firefly luciferase (FLuc) mRNA was encapsulated into LNPs using a previously reported formulation containing ionizable lipid, 1,2-dioleoyl-sn-glycero-3-phosphoethanolamine (DOPE), cholesterol, and 1,2-dimyristoyl-rac-glycero-3-methoxypolyethylene glycol-2000 (DMG-PEG).^19 C2C12 myoblast cells were treated with these LNPs and FLuc expression was evaluated at 24 hrs. (FIG. 16). […] Each of these batches was then injected IM into the quadriceps of mice, and expression was characterized via IVIS imaging (Screen 1, FIG. 11E).
# AMG lipids for enhanced mRNA delivery and improved tolerability. A rational design approach was used to further vary the ionizable lipid structure to enhance the mRNA delivery and immunogenicity. […] The lipid tail structure was varied to promote efficient LNP self-assembly while simultaneously promoting endosomal membrane disruption.^18 Monounsaturated (G41-G44) or fully saturated (GC12-GC18) lipid tails were developed. […] Without wishing to be bound by any particular theory, tail length may impact membrane fusion and endosomal escape.^10,11
# Next, the headgroup was further modified to further improve delivery. Headgroups play a multifunctional role including enhancing LNP-mRNA interactions, promoting membrane-LNP fusion and endosomal escape which all contribute to mRNA delivery.^23 A series of similar aza-crown ethers were used to further investigate structure-activity relationship and enhance mRNA delivery. These headgroups featured between three and eight nitrogens linked by varying length of methylene chains. Each of these headgroups were reacted with tail G41 to synthesize a next generation of AMG lipids, which were then formulated with FLuc mRNA and evaluated for mRNA delivery following IM administration in mice (FIG. 12B).
# in vivo = conditions: C57BL/6, mouse, im
# mice [7] = conditions: female BALB/cJ mice, 6 hours after the boost dose
# [8] = intravenous delivery of mRNA to the liver (FIG. 18), EPO in blood 6 hours
compound,measurement,setting,value
CCCCCC/C=C\CCCC(=O)OCC(O)CN1CCN(CC(O)COC(=O)CCC/C=C\CCCCCC)CCN(CC(O)COC(=O)CCC/C=C\CCCCCC)CCN(CC(O)COC(=O)CCC/C=C\CCCCCC)CCN(CC(O)COC(=O)CCC/C=C\CCCCCC)CCN(CC(O)COC(=O)CCC/C=C\CCCCCC)CC1 (stereo not shown) [AMG1541],fold higher binding antibody endpoint titers than SM-102,mice [1]; female BALB/cJ mice,6.8 fold
same,fold higher binding antibody titers than SM-102,mice [1]; female C57B1/6J mice,5.8 fold
same,fold higher binding antibody endpoint titers than SM-102,mice [1]; male BALB/cJ mice,15.8 fold
same,fold higher infection inhibition IC50 than AMG1041,[2],approximately 2 fold
same,"hEPO expression profile in the liver, comparable to MD-1",mice [3]; administered intravenously,excellent hEPO expression profile
same,hEPO protein expression in liver,mice [3]; dose range of 0.25-1 mg/kg,consistent levels of protein expression
same,fold higher protein expression than Lipid 5,"mice [3]; hEPO mRNA, 1 mg/kg dose",3-4 fold
same,hEPO protein expression,mice [3]; higher doses beyond 2 mg/kg,reduced protein expression
same,expression relative to cKK-E12,mice [3]; intravenous delivery of mRNA to the liver (FIG. 18),comparable expression to cKK-E12
same,fold higher expression than LP-01,mice [3]; [8],~5 fold
same,fold higher expression than Lipid 5,mice [3]; [8],~3 fold
same,"hEPO production in liver, repeat dosing",mice [3]; repeat dosing over 3 weeks at 0.05-1 mg/kg,consistent hEPO production
same,LNP pKa,TNS assay of LNP pKa,~6.5
same,fold higher neutralizing titers than SM-102,[4]; equivalent vaccine dose,13 fold
same,lowest mRNA dose giving neutralizing immunity,"[4]; female BALB/cJ mice, dose-response vaccination",10 ng
same,fold lower dose giving similar protective immunity to SM-102,"[4]; mouse, in vivo",100 fold
same,31P NMR phase behaviour,[5],bilayer membrane to hexagonal HII transformation
same,fold higher expression compared to AMG104,"mice [6]; IM, 1 μg, 6 hours",4.5 fold
same,fold higher in vivo mRNA transfection compared to SM-102,"mice [6]; IM, 1 μg, 6 hours",3.5 fold
same,fold improvement in expression over cKK-E12,"mice [6]; IM, 1 μg, 6 hours",1.7 fold
same,potency in intramuscular administration of mRNA compared to SM-102 and ALC-0315,"mice [6]; mouse, in vivo",equal or higher potency
same,times higher in vivo mRNA delivery compared to FDA-approved counterparts,"mice [6]; mouse, in vivo",approximately three
same,half-life,in vivo,180 min
same,fold higher serum IL-2 than in SM-102 vaccinated mice,mice [7],5 fold
same,serum cytokine levels compared with SM-102,mice [7]; except IL-2,comparable cytokine levels
